Test results from patent US20190053492A1, “SUBSTITUTED PYRIDINE COMPOUNDS AS PESTICIDES” (Bayer CropScience Aktiengesellschaft, priority 2016, published 2019).
Read-outs that look alike come from different tables or passages of the source.

Experiments:
Spodoptera frugiperda = Spodoptera frugiperda spray test; assay type: in vivo; details: after 7 days, maize leaf discs
In short: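 Maize leaf discs were sprayed with compound formulated in acetone/DMF and emulsifier-containing water, dried, then infested with Spodoptera frugiperda caterpillars. Percent kill was scored after 7 days, from 100% (all dead) to 0% (none dead).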

[1] = log P by HPLC on reversed-phase column (C 18), EEC Directive 79/831 Annex V.A8; assay type: physicochemical; details: 55° C.; for LOGP_HCOOH: log P (HCOOH); for chromatographic logP: reversed-phase HPLC column (C 18)
Experimental: Temperature: 55° C. […] Called log P (HCOOH) in the table. […] Called log P (neutral) in the table.

Tetranychus urticae = Tetranychus urticae spray test, OP-resistant; assay type: in vivo; details: after 6 days, bean leaf discs
Experimental: Tetranychus urticae—Spray Test, OP-Resistant
Solvent: 78.0 parts by weight of acetone • • 1.5 parts by weight of dimethylformamide
Emulsifier: alkylaryl polyglycol ether
To produce a suitable active ingredient formulation, 1 part by weight of active ingredient is dissolved with the specified parts by weight of solvent and made up with water containing an emulsifier concentration of 1000 ppm until the desired concentration is attained. To produce further test concentrations, the formulation is diluted with emulsifier-containing water.
Discs of bean leaves (Phaseolus vulgaris) infested with all stages of the greenhouse red spider mite (Tetranychus urticae) are sprayed with an active ingredient formulation of the desired concentration.
After 6 days, the efficacy in % is determined. 100% means that all the spider mites have been killed; 0% means that no spider mites have been killed.

Phaedon cochleariae = Phaedon cochleariae spray test; assay type: in vivo; details: after 7 days, Chinese cabbage leaf discs
In short: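 Chinese cabbage leaf discs sprayed with compound in acetone/DMF and emulsifier-containing water, then infested with mustard beetle larvae once dry. Efficacy in % scored after 7 days (100% = all larvae killed, 0% = none).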

Lucilia cuprina = Lucilia cuprina test; assay type: in vivo; details: application rate 100 ppm, after 2 days, L1 larvae
In short: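 Active ingredient dissolved in DMSO and diluted with water to the test concentration. About 20 first-instar sheep blowfly larvae placed on minced horsemeat containing the formulation; percentage of larvae killed scored after 2 days.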

Ctenocephalides felis = Ctenocephalides felis oral test; assay type: in vivo; details: application rate 100 ppm in citrated cattle blood, after 2 days, adult cat fleas
In short: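 About 20 unfed adult cat fleas fed through a parafilm membrane on citrated cattle blood dosed with compound from a DMSO formulation. Percent kill was scored after 2 days.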

Musca domestica = Musca domestica test; assay type: in vivo; details: after 2 days, adult houseflies
Experimental: Musca domestica Test Solvent: dimethyl sulphoxide To produce a suitable active ingredient formulation, 10 mg of active ingredient are mixed with 0.5 ml of dimethyl sulphoxide, and the concentrate is diluted with water to the desired concentration. Vessels containing a sponge treated with sugar solution and the active ingredient formulation of the desired concentration are populated with 10 adult houseflies (Musca domestica). After 2 days, the kill in % is determined. 100% means that all of the flies have been killed; 0% means that none of the flies have been killed.

[2] = acidic range at pH 2.7, 0.1% aqueous formic acid and acetonitrile, HPLC on reversed-phase column (C 18)
[3] = log P, neutral range, HPLC on reversed-phase column (C 18)
[4] = acidic range pH 2.7, 0.1% aqueous formic acid and acetonitrile, reversed-phase column (C 18)

Structure (SMILES) | efficacy (caterpillars killed) (Spodoptera frugiperda; application rate 100 g/ha) [%] | efficacy (caterpillars killed) (Spodoptera frugiperda; application rate 500 g/ha) [%] | LOGP_HCOOH [1, 2] | LOGP_NEUTRAL [1, 3] | efficacy (spider mites killed) (Tetranychus urticae; application rate 500 g/ha) [%] | efficacy (beetle larvae killed) (Phaedon cochleariae; application rate 100 g/ha) [%] | efficacy (beetle larvae killed) (Phaedon cochleariae; application rate 500 g/ha) [%] | efficacy (kill in %) (Lucilia cuprina) [%] | efficacy (kill in %) (Ctenocephalides felis) [%] | efficacy (kill in %) (Musca domestica; application rate 100 ppm) [%] | further results
CC(NC(=O)c1cc(-c2ccc(OC(F)(F)F)cc2)cc(NC(=O)C2CC2)n1)c1ccc(C#N)cc1 (single isomer, unassigned) [Example I-218] | 100 | 100 | 4.17 | 4.02 | 90 | 100 | 100 |  |  |  | efficacy (spider mites killed) (Tetranychus urticae; application rate 100 g/ha): 90%
O=C(NCc1ccc([N+](=O)[O-])cc1)c1cc(-c2ccc(OC(F)(F)F)cc2)cc(NC(=O)C2CC2)n1 [Example I-085] | 100 | 100 |  | 3.97 |  | 100 | 100 | 100 | 100 | 80 | LOGP_HCOOH [1, 4]: 4.11
O=C(NC1CC1)c1cc(-c2ccc(OC(F)(F)F)cc2)cc(NC(=O)C2CC2)n1 [Example I-089] | 100 | 100 |  | 3.39 |  | 100 | 100 | 95 | 100 | 100 | LOGP_HCOOH [1, 4]: 3.51
Cn1ccc(-c2ccc(CNC(=O)c3cc(-c4ccc(OC(F)(F)F)cc4)cc(NC(=O)C4CC4)n3)cc2)n1 [Example I-100] |  | 83 |  | 3.75 |  |  |  |  |  |  | LOGP_HCOOH [1, 4]: 3.86; efficacy (spider mites killed) (Tetranychus urticae; application rate 100 g/ha): 90%
COC(=O)c1ccc(CNC(=O)c2cc(-c3ccc(OC(F)(F)F)cc3)cc(NC(=O)C3CC3)n2)cc1 [Example I-101] |  |  |  | 3.97 | 90 |  | 83 |  |  |  | LOGP_HCOOH [1, 4]: 4.08
CC(C#N)NC(=O)c1cc(-c2ccc(OC(F)(F)F)cc2)cc(NC(=O)C2CC2)n1 (centres unmarked) [Example I-115] | 100 | 100 | 3.46 | 3.40 |  | 100 | 100 | 90 | 100 | 80 | 
N#Cc1ccc(CNC(=O)c2cc(-c3cc(F)c(OC(F)(F)F)c(F)c3)cc(NC(=O)C3CC3)n2)cc1 [Example I-152] | 100 | 100 | 4.14 | 4.05 |  | 100 | 100 | 90 | 100 | 90 | 
N#Cc1ccc(CNC(=O)c2cc(-c3ccc4c(c3)OC(F)(F)O4)cc(NC(=O)C3CC3)n2)cc1 [Example I-154] | 83 | 100 | 3.76 | 3.61 |  | 100 | 100 | 100 | 100 | 100 | 
N#Cc1ccc(CNC(=O)c2cc(-c3cc(F)c(OC(F)F)c(F)c3)cc(NC(=O)C3CC3)n2)cc1 [Example I-155] | 100 | 100 | 3.46 | 3.40 |  |  | 83 | 100 | 100 | 100 | 
N#Cc1ccc(CNC(=O)c2cc(-c3ccc(C(F)(F)F)s3)cc(NC(=O)C3CC3)n2)cc1 [Example I-160, N-(4-Cyanobenzyl)-6-[(cyclopropylcarbonyl)amino]-4-[5-(trifluoromethyl)-2-thienyl]pyridine-2-carboxamide] |  |  |  |  |  |  |  | 100 |  | 80 | pest or weed control at 100 g/ha (Spodoptera frugiperda; Spodoptera frugiperda, foliar, 168 h, application rate 100 g/ha, read-out: efficacy (caterpillars killed)): 100%; pest or weed control at 500 g/ha (Spodoptera frugiperda; Spodoptera frugiperda, foliar, 168 h, application rate 500 g/ha, read-out: efficacy (caterpillars killed)): 100%; chromatographic logP ([1]; pH 2.7, LC-MS acidic range, pH 2.7, 0.1% formic acid/acetonitrile, read-out: log P (acidic) / log P (HCOOH)): 3.73; chromatographic logP ([1]; pH 2.7, log P (HCOOH), acidic range at pH 2.7, 0.1% aqueous formic acid and acetonitrile, HPLC on reversed-phase column (C 18), read-out: LOGP_HCOOH): 3.68; pest or weed control at 100 ppm (Ctenocephalides felis; Ctenocephalides felis, po, 48 h, read-out: efficacy (kill in %)): 100%; pest or weed control at 100 g/ha (Phaedon cochleariae; Phaedon cochleariae, foliar, 168 h, application rate 100 g/ha, read-out: efficacy (beetle larvae killed)): 100%; pest or weed control at 500 g/ha (Phaedon cochleariae; Phaedon cochleariae, foliar, 168 h, application rate 500 g/ha, read-out: efficacy (beetle larvae killed)): 100%
N#Cc1ccc(CNC(=O)c2cc(-c3ccc4c(c3)OC(F)(F)C(F)(F)O4)cc(NC(=O)C3CC3)n2)cc1 [Example I-172] | 100 | 100 | 4.27 | 4.57 |  |  | 100 | 100 | 100 | 100 | 
O=C(NC1(C2CC2)CC1)c1cc(-c2ccc(OC(F)(F)F)cc2)cc(NC(=O)C2CC2)n1 [Example I-184] |  | 100 | 4.23 |  |  | 100 | 100 | 100 | 100 |  | efficacy (kill in %) (Musca domestica; application rate 20 ppm): 100%
N#CC1CCC(CNC(=O)c2cc(-c3ccc(C(F)(F)C(F)(F)F)c(F)c3)cc(NC(=O)C3CC3)n2)CC1 (centres unmarked) [Example I-185] | 100 | 100 | 4.29 | 4.14 | 90 | 100 | 100 |  |  |  | 
N#Cc1ccc(CNC(=O)c2cc(-c3ccc(OC(F)(F)C(F)Cl)cc3)cc(NC(=O)C3CC3)n2)cc1 (centres unmarked) [Example I-194] |  |  | 3.81 | 3.74 | 90 |  | 83 |  |  |  | efficacy (spider mites killed) (Tetranychus urticae; application rate 100 g/ha): 90%
N#CC1CCC(CNC(=O)c2cc(-c3ccc(C(F)(F)C(F)(F)F)cc3)cc(NC(=O)C3CC3)n2)CC1 (centres unmarked) [Example I-195] | 100 | 100 | 4.22 | 4.08 |  | 100 | 100 | 100 | 100 | 100 | efficacy (kill in %) (Musca domestica; application rate 20 ppm): 100%
O=C(NCc1ccc([N+](=O)[O-])cc1)c1cc(-c2ccc(C(F)(F)C(F)(F)F)cc2)cc(NC(=O)C2CC2)n1 [Example I-196] | 100 | 100 | 4.37 | 4.30 |  | 100 | 100 | 100 | 100 | 80 | 
O=C(NCc1ccccc1)c1cc(-c2ccc(OC(F)(F)F)cc2)cc(NC(=O)C2CC2)n1 [Example I-227] |  | 100 | 4.23 |  | 90 |  | 100 |  |  |  | efficacy (spider mites killed) (Tetranychus urticae; application rate 100 g/ha): 90%
N#Cc1ccc(CNC(=O)c2cc(-c3ccc(OC(F)(F)F)cc3)cc(NC(=O)C3CC3)n2)s1 [Example I-255] | 83 | 100 |  |  | 90 |  |  |  |  |  | LOGP_HCOOH [1, 4]: 3.90; LOGP_NEUTRAL ([1]; log P (neutral), HPLC reversed-phase column (C 18)): 3.88
